# Experimental data as given in patent US6693216B2, “Calcium double salts” (Nutrinova Nutrition Specialties & Food Ingredients GmbH, priority 2000, dated 2004).
# Read-outs that look alike come from different tables or passages of the source.
# How the values were obtained:
# Lactic acid bacteria = conditions: Part II, 1 g/l in apple juice pH 4.5, 25° C.
# Molds II = conditions: Part II, 1 g/l in apple juice pH 4.5, 25° C.
# [1] = sealed
# Source text: Salts prepared as in example 1 were dried, stored under the specified conditions without the addition of other substances and checked at regular intervals visually for discoloration: […]
# Clostridia = conditions: Part II, 1 g/l in apple juice pH 4.5, 25° C.
# Acetic acid bacteria = conditions: Part II, 1 g/l in apple juice pH 4.5, 25° C.
# Molds I = conditions: Part II, 1 g/l in apple juice pH 4.5, 25° C.
# Thermophilic bacilli = conditions: Part II, 1 g/l in apple juice pH 4.5, 25° C.
# Bacilli = conditions: Part II, 1 g/l in apple juice pH 4.5, 25° C.
# Yeasts = conditions: Part II, 1 g/l in apple juice pH 4.5, 25° C.
# Gram-positive bacteria = conditions: Part II, 1 g/l in apple juice pH 4.5, 25° C.
# Gram-negative bacteria = conditions: Part II, 1 g/l in apple juice pH 4.5, 25° C.
# [2] = 1 day after inoculation (2.7 × 10^4)
# [3] = 3 days after inoculation (2.7 × 10^4)
# [4] = 7 days after inoculation (2.7 × 10^4)
# [5] = 14 days after inoculation (2.7 × 10^4)
compound,measurement,setting,value
C/C=C/C=C/C(=O)[O-].O=C[O-].[Ca+2],"Number of surviving microorganisms per g of contaminated sample, Lactic acid bacteria",Lactic acid bacteria; [2],3.9 × 10^3 CFU/g
same,"Number of surviving microorganisms per g of contaminated sample, Lactic acid bacteria",Lactic acid bacteria; [3],1.5 × 10^3 CFU/g
same,"Number of surviving microorganisms per g of contaminated sample, Lactic acid bacteria",Lactic acid bacteria; [4],<10 CFU/g
same,"Number of surviving microorganisms per g of contaminated sample, Lactic acid bacteria",Lactic acid bacteria; [5],<10 CFU/g
same,"Number of surviving microorganisms per g of contaminated sample, Molds II",Molds II; 1 day after inoculation (2.5 × 10^4),3.9 × 10^3 CFU/g
same,"Number of surviving microorganisms per g of contaminated sample, Molds II",Molds II; 3 days after inoculation (2.5 × 10^4),<100 CFU/g
same,"Number of surviving microorganisms per g of contaminated sample, Molds II",Molds II; 7 days after inoculation (2.5 × 10^4),<10 CFU/g
same,"Number of surviving microorganisms per g of contaminated sample, Molds II",Molds II; 14 days after inoculation (2.5 × 10^4),<10 CFU/g
same,Time after yellow-brown discoloration of a 1% strength aqueous solution,[1]; dark at 7° C.,12 months/>12 months
same,Time after yellow-brown discoloration of the powder,[1]; dark at 7° C.,>12 months />12 months
same,Time after yellow-brown discoloration of a 1% strength aqueous solution,[1]; dark at 25° C.,12 months/>12 months
same,Time after yellow-brown discoloration of the powder,[1]; dark at 25° C.,>12 months />12 months
same,Time after yellow-brown discoloration of a 1% strength aqueous solution,[1]; under sunlight at 7° C.,12 months/>12 months
same,Time after yellow-brown discoloration of the powder,[1]; under sunlight at 7° C.,12 months/>12 months
same,Time after yellow-brown discoloration of a 1% strength aqueous solution,[1]; under sunlight at 25° C.,12 months/>12 months
same,Time after yellow-brown discoloration of the powder,[1]; under sunlight at 25° C.,12 months/>12 months
same,"Number of surviving microorganisms per g of contaminated sample, Clostridia",Clostridia; 1 day after inoculation (2.9 × 10^4),1.1 × 10^3 CFU/g
same,"Number of surviving microorganisms per g of contaminated sample, Clostridia",Clostridia; 3 days after inoculation (2.9 × 10^4),<100 CFU/g
same,"Number of surviving microorganisms per g of contaminated sample, Clostridia",Clostridia; 7 days after inoculation (2.9 × 10^4),100 CFU/g
same,"Number of surviving microorganisms per g of contaminated sample, Clostridia",Clostridia; 14 days after inoculation (2.9 × 10^4),<10 CFU/g
same,"Number of surviving microorganisms per g of contaminated sample, Acetic acid bacteria",Acetic acid bacteria; 1 day after inoculation (2.8 × 10^4),2.1 × 10^4 CFU/g
same,"Number of surviving microorganisms per g of contaminated sample, Acetic acid bacteria",Acetic acid bacteria; 3 days after inoculation (2.8 × 10^4),1.6 × 10^4 CFU/g
same,"Number of surviving microorganisms per g of contaminated sample, Acetic acid bacteria",Acetic acid bacteria; 7 days after inoculation (2.8 × 10^4),7.6 × 10^3 CFU/g
same,"Number of surviving microorganisms per g of contaminated sample, Acetic acid bacteria",Acetic acid bacteria; 14 days after inoculation (2.8 × 10^4),2.6 × 10^4 CFU/g
same,"Number of surviving microorganisms per g of contaminated sample, Molds I",Molds I; 1 day after inoculation (2.2 × 10^4),3.8 × 10^3 CFU/g
same,"Number of surviving microorganisms per g of contaminated sample, Molds I",Molds I; 3 days after inoculation (2.2 × 10^4),2.0 × 10^2 CFU/g
same,"Number of surviving microorganisms per g of contaminated sample, Molds I",Molds I; 7 days after inoculation (2.2 × 10^4),25 CFU/g
same,"Number of surviving microorganisms per g of contaminated sample, Molds I",Molds I; 14 days after inoculation (2.2 × 10^4),10 CFU/g
same,"Number of surviving microorganisms per g of contaminated sample, Thermophilic bacilli",Thermophilic bacilli; 1 day after inoculation (1.3 × 10^4),2.0 × 10^3 CFU/g
same,"Number of surviving microorganisms per g of contaminated sample, Thermophilic bacilli",Thermophilic bacilli; 3 days after inoculation (1.3 × 10^4),3.0 × 10^2 CFU/g
same,"Number of surviving microorganisms per g of contaminated sample, Thermophilic bacilli",Thermophilic bacilli; 7 days after inoculation (1.3 × 10^4),<10 CFU/g
same,"Number of surviving microorganisms per g of contaminated sample, Thermophilic bacilli",Thermophilic bacilli; 14 days after inoculation (1.3 × 10^4),<10 CFU/g
same,"Number of surviving microorganisms per g of contaminated sample, Bacilli",Bacilli; 1 day after inoculation (3.3 × 10^4),3.2 × 10^3 CFU/g
same,"Number of surviving microorganisms per g of contaminated sample, Bacilli",Bacilli; 3 days after inoculation (3.3 × 10^4),1.8 × 10^3 CFU/g
same,"Number of surviving microorganisms per g of contaminated sample, Bacilli",Bacilli; 7 days after inoculation (3.3 × 10^4),1.7 × 10^3 CFU/g
same,"Number of surviving microorganisms per g of contaminated sample, Bacilli",Bacilli; 14 days after inoculation (3.3 × 10^4),1.8 × 10^3 CFU/g
same,"Number of surviving microorganisms per g of contaminated sample, Yeasts",Yeasts; 1 day after inoculation (2.6 × 10^4),1.3 × 10^4 CFU/g
same,"Number of surviving microorganisms per g of contaminated sample, Yeasts",Yeasts; 3 days after inoculation (2.6 × 10^4),4.3 × 10^3 CFU/g
same,"Number of surviving microorganisms per g of contaminated sample, Yeasts",Yeasts; 7 days after inoculation (2.6 × 10^4),<100 CFU/g
same,"Number of surviving microorganisms per g of contaminated sample, Yeasts",Yeasts; 14 days after inoculation (2.6 × 10^4),<10 CFU/g
same,"Number of surviving microorganisms per g of contaminated sample, Gram-positive bacteria",Gram-positive bacteria; 1 day after inoculation (2.1 × 10^4),2.1 × 10^4 CFU/g
same,"Number of surviving microorganisms per g of contaminated sample, Gram-positive bacteria",Gram-positive bacteria; 3 days after inoculation (2.1 × 10^4),8.5 × 10^3 CFU/g
same,"Number of surviving microorganisms per g of contaminated sample, Gram-positive bacteria",Gram-positive bacteria; 7 days after inoculation (2.1 × 10^4),6.8 × 10^2 CFU/g
same,"Number of surviving microorganisms per g of contaminated sample, Gram-positive bacteria",Gram-positive bacteria; 14 days after inoculation (2.1 × 10^4),<10 CFU/g
same,Preservative action against the microorganisms used,"all microorganisms used; 1 g/l in apple juice pH 4.5, up to 14 days","acts well and persistently against all microorganisms used, except for acetic acid bacteria and bacilli"
same,Preservative action compared with the single salts,"all microorganisms used; same concentration, 1 g/l in apple juice pH 4.5","acts surprisingly better than calcium formate (in particular against lactic acid bacteria, yeasts and molds) or calcium sorbate (in particular against Gram-negative bacteria) used alone"
same,"Number of surviving microorganisms per g of contaminated sample, Gram-negative bacteria",Gram-negative bacteria; [2],1.7 × 10^4 CFU/g
same,"Number of surviving microorganisms per g of contaminated sample, Gram-negative bacteria",Gram-negative bacteria; [3],2.5 × 10^3 CFU/g
same,"Number of surviving microorganisms per g of contaminated sample, Gram-negative bacteria",Gram-negative bacteria; [4],2.0 × 10^3 CFU/g
same,"Number of surviving microorganisms per g of contaminated sample, Gram-negative bacteria",Gram-negative bacteria; [5],<10 CFU/g
